Common to all, as to assay: Pre-emergent herbicidal activity (Table A)
What all share (format): in vivo

In one experiment the test system is Downy Brome. As to conditions: Bromus tectorum, pre-emergence, Dobr, 11.2 kg/ha, 10-14 days, read-out: herbicidal rating (% inhibition). In outline:
(§1)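 Seeds or perennial propagules set on compacted topsoil, then covered with soil mixed with a known amount of test compound applied in acetone or water carrier. Ratings assigned on a scale based on percent inhibition of each species.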

The next experiment concerns Velvetleaf. As to conditions: Abutilon theophrasti, pre-emergence, Vele, 11.2 kg/ha, 10-14 days, read-out: herbicidal rating (% inhibition). In outline:
as §1

The subject of the next experiment is Pennsylvania Smartweed. As to conditions: pre-emergence, Pesw, 11.2 kg/ha, 10-14 days, read-out: herbicidal rating (% inhibition). An outline of the steps: as §1
The test system of the next experiment is Morningglory. As to conditions: Ipomoea, pre-emergence, Mogl, 11.2 kg/ha, 10-14 days, read-out: herbicidal rating (% inhibition). In outline: as §1
The test system of another experiment is Quackgrass. As to conditions: pre-emergence, Rhqg, 11.2 kg/ha, 10-14 days, read-out: herbicidal rating (% inhibition). An outline of the steps:
as §1

The subject of a further experiment is Canada thistle. As to conditions: Cirsium arvense, pre-emergence, Cath, 11.2 kg/ha, 10-14 days, read-out: herbicidal rating (% inhibition). In outline: as §1
For the next experiment, the system named is Barnyardgrass. As to conditions: Echinochloa crus-galli, pre-emergence, Bygr, 11.2 kg/ha, 10-14 days, read-out: herbicidal rating (% inhibition). In outline: as §1
A further experiment deals with Common Lambsquarters. As to conditions: Chenopodium album, pre-emergence, Colq, 11.2 kg/ha, 10-14 days, read-out: herbicidal rating (% inhibition). In outline:
as §1

Another experiment relates to Rhizome Johnsongrass. As to conditions: Sorghum halepense, pre-emergence, Rhjg, 11.2 kg/ha, 10-14 days, read-out: herbicidal rating (% inhibition). In outline:
as §1

The subject of another experiment is Cocklebur. As to conditions: Xanthium strumarium, pre-emergence, Cobu, 11.2 kg/ha, 10-14 days, read-out: herbicidal rating (% inhibition). An outline of the steps:
as §1

Another experiment deals with Yellow Nutsedge. As to conditions: Cyperus, pre-emergence, Yens, 11.2 kg/ha, 10-14 days, read-out: herbicidal rating (% inhibition). An outline of the steps:
as §1

SMILES strings stand for the structures.

For orientation: inhibition means how much of the control response was suppressed.

In the case of `COC(=O)c1c(OC)nc(C(F)(F)F)c(C(=O)N2CCCCCC2)c1CC(C)C` [Compound 73, 3-pyridinecarboxylic acid, 5-[(hexahydro-1H-azepin-1-yl)carbonyl]-2-methoxy-4-(2-methylpropyl)-6-(trifluoromethyl)-, methyl ester], the inhibition at 11200 g/ha in the experiment with Downy Brome lay in the range of 75 to 100%; with Velvetleaf, 25 to 49%; with Pennsylvania Smartweed, 75 to 100%; with Morningglory, 50 to 74%; with Quackgrass, 75 to 100%; in the experiment with Canada thistle, 75 to 100%. Further, the inhibition at 11200 g/ha with Barnyardgrass fell in the range of 75 to 100%; in the experiment on Common Lambsquarters, 75 to 100%; with Rhizome Johnsongrass it was 75 to 100%; in the experiment on Cocklebur, 0 to 24%; in the experiment with Yellow Nutsedge, 0 to 24%.

Regarding `COC(=O)c1c(OC)nc(C(F)(F)F)c(C2=NC(C)CS2)c1CC(C)C` (centres unmarked) [Compound 74, 3-pyridinecarboxylic acid, 5-(4,5-dihydro-4-methy1-2-thiazolyl)-2-methoxy-4-(2-methylpropyl)-6-(trifluoromethyl)-, methyl ester], the inhibition at 11200 g/ha in the experiment with Downy Brome, in the experiment on Velvetleaf, in the experiment on Pennsylvania Smartweed, in the experiment on Morningglory, with Quackgrass and with Canada thistle was 75 to 100% in each case. For the same compound, the inhibition at 11200 g/ha in the experiment on Barnyardgrass is 75 to 100%; in the experiment on Common Lambsquarters, 75 to 100%; in the experiment with Rhizome Johnsongrass, 75 to 100%; in the experiment on Cocklebur, 75 to 100%; with Yellow Nutsedge, 25 to 49%.

With `COC(=O)c1c(OC)nc(C(F)(F)F)c(C2=NC(C)(C)CS2)c1CC(C)C` [Compound 75, 3-pyridinecarboxylic acid, 5-(4,5-dihydro-4,4-dimethy1-2-thiazolyl)-2-methoxy-4-(2-methylpropyl)-6-(trifluoromethyl)-, methyl ester], the inhibition at 11200 g/ha in the experiment on Downy Brome, with Velvetleaf, in the experiment with Pennsylvania Smartweed, with Morningglory, in the experiment on Quackgrass and with Canada thistle was 75 to 100% in each case. The inhibition at 11200 g/ha with Barnyardgrass is 75 to 100%; in the experiment with Common Lambsquarters it was 75 to 100%; in the experiment with Rhizome Johnsongrass, 25 to 49%; with Cocklebur, 50 to 74%; in the experiment with Yellow Nutsedge, 75 to 100%.

For `COC=Nc1c(C(F)(F)F)nc(OC)c(C(=O)OC)c1CC(C)C` [Compound 76, 3-pyridinecarboxylic acid, 2-methoxy-5-[(methoxymethylene)amino]-4-(2-methylpropyl)-6-(trifluoromethyl)-, methyl ester], the inhibition at 11200 g/ha in the experiment with Downy Brome, in the experiment with Velvetleaf, in the experiment on Pennsylvania Smartweed, in the experiment on Morningglory, with Quackgrass and in the experiment with Canada thistle was 75 to 100% in each case. For the same compound, the inhibition at 11200 g/ha with Barnyardgrass was in the range of 75 to 100%; in the experiment with Common Lambsquarters, 75 to 100%; in the experiment on Rhizome Johnsongrass it was 50 to 74%; in the experiment on Cocklebur it was 0 to 24%; with Yellow Nutsedge it was 50 to 74%.

As for `CCSC=Nc1c(C(F)(F)F)nc(OC)c(C(=O)OC)c1CC(C)C` [Compound 78, 3-pyridinecarboxylic acid, 5-[[(ethylthio)methylene]amino]-2-methoxy-4-(2-methylpropyl)-6-(trifluoromethyl)-, methyl ester], the inhibition at 11200 g/ha in the experiment on Downy Brome is 75 to 100%; in the experiment on Velvetleaf, 75 to 100%; in the experiment on Pennsylvania Smartweed, 75 to 100%; with Morningglory, 75 to 100%; in the experiment on Quackgrass, 50 to 74%; in the experiment on Canada thistle, 75 to 100%. Besides, the inhibition at 11200 g/ha with Barnyardgrass fell in the range of 75 to 100%; in the experiment with Common Lambsquarters, 75 to 100%; in the experiment with Rhizome Johnsongrass, 0 to 24%; in the experiment with Cocklebur it was 0 to 24%; in the experiment with Yellow Nutsedge, 0 to 24%.

`C#CCOc1nc(C(F)(F)F)c(C(=O)OC)c(CC(C)C)c1C(=O)OC` [Compound 83, 3,5-pyridinedicarboxylic acid, 4-(2-methylpropyl)-2-(2-propynyloxy)-6-(trifluoromethyl)-, dimethyl ester]: the inhibition at 11200 g/ha was in the range of 75 to 100% with Downy Brome; 75 to 100% in the experiment with Velvetleaf; 75 to 100% in the experiment on Pennsylvania Smartweed; 75 to 100% in the experiment with Morningglory; 75 to 100% in the experiment with Quackgrass; 25 to 49% with Canada thistle. For the same compound, the inhibition at 11200 g/ha was 75 to 100% with Barnyardgrass; 75 to 100% in the experiment on Common Lambsquarters; 25 to 49% in the experiment on Rhizome Johnsongrass; 0 to 24% in the experiment on Cocklebur; 0 to 24% in the experiment on Yellow Nutsedge.

Consider `COC(=O)c1c(OC)nc(C(F)(F)F)c(C(=O)OC)c1C` [Compound 86, 3,5-pyridinedicarboxylic acid, 2-methoxy-4-methy1-6-(trifluoromethyl)-, dimethyl ester], for which the inhibition at 11200 g/ha was in the range of 75 to 100% in the experiment on Downy Brome; 50 to 74% with Velvetleaf; 50 to 74% in the experiment with Pennsylvania Smartweed; 75 to 100% in the experiment with Morningglory; 75 to 100% in the experiment with Quackgrass; 0 to 24% in the experiment with Canada thistle. Besides, the inhibition at 11200 g/ha in the experiment with Barnyardgrass is 75 to 100%; in the experiment with Common Lambsquarters, 75 to 100%; in the experiment with Rhizome Johnsongrass, 75 to 100%; in the experiment on Cocklebur it was 0 to 24%; with Yellow Nutsedge, 0 to 24%.

With `COC(=O)c1c(OC)nc(C(F)(F)F)c(C(=O)OC)c1CSC` [Compound 89, 3,5-pyridinedicarboxylic acid, 2-methoxy-4-[(methylthio)methyl]-6-(trifluoromethyl)-, dimethyl ester], the inhibition at 11200 g/ha is 25 to 49% in the experiment with Downy Brome; 75 to 100% with Velvetleaf; 75 to 100% in the experiment on Pennsylvania Smartweed; 75 to 100% with Morningglory; 25 to 49% in the experiment on Quackgrass; 75 to 100% in the experiment with Canada thistle. For the same compound, the inhibition at 11200 g/ha is 75 to 100% in the experiment on Barnyardgrass; 75 to 100% in the experiment on Common Lambsquarters; 0 to 24% with Rhizome Johnsongrass; 25 to 49% in the experiment with Cocklebur; 0 to 24% in the experiment with Yellow Nutsedge.

For `CCCc1c(C(=O)OC)c(OC)nc(C(F)(F)F)c1C(=O)OC` [Compound 91, 3,5-pyridinedicarboxylic acid, 2-methoxy-4-propy1-6-(trifluoromethyl)-, dimethyl ester], the inhibition at 11200 g/ha in the experiment on Downy Brome, with Velvetleaf, in the experiment with Pennsylvania Smartweed, with Morningglory, in the experiment on Quackgrass and with Canada thistle was 75 to 100% each time. Further, the inhibition at 11200 g/ha in the experiment on Barnyardgrass is 75 to 100%; with Common Lambsquarters, 75 to 100%; in the experiment on Rhizome Johnsongrass, 75 to 100%; in the experiment with Cocklebur it was 25 to 49%; with Yellow Nutsedge, 75 to 100%.

`COC(=O)c1c(OC)nc(C(F)(F)F)c(C(=O)OC)c1CC1CC1` [Compound 92, 3,5-pyridinedicarboxylic acid, 4-(cyclopropylmethyl)-2-methoxy-6-(trifluoromethyl)-, dimethyl ester]: the inhibition at 11200 g/ha in the experiment on Downy Brome, with Velvetleaf, in the experiment on Pennsylvania Smartweed, in the experiment on Morningglory, in the experiment with Quackgrass and with Canada thistle was 75 to 100% in each case. Besides, the inhibition at 11200 g/ha with Barnyardgrass lay within 75 to 100%; with Common Lambsquarters it was 75 to 100%; in the experiment with Rhizome Johnsongrass, 0 to 24%; in the experiment on Cocklebur, 50 to 74%; with Yellow Nutsedge it was 75 to 100%.

Source of the values: patent publication US5391540A, “Substituted pyridine compounds” (Rohm and Haas Company, priority 1993, dated 1995).
